Test results published in patent publication US20240239775A1, “FXR REGULATOR, PREPARATION METHOD THEREFOR, PHARMACEUTICAL COMPOSITION THEREOF AND USE THEREOF” (QINGDAO RUIJI MEDICAL TECHNOLOGY CO., LTD., priority 2021, published 2024).

These molecules were tested against T1, FXR (Homo sapiens, UniProt Q96RI1) (assay: FXR antagonist screening by TR-FRET (LanthaScreen TR-FRET FXR co-activation assay kit)). Conditions: Table 1.1, FXR antagonistic activity; TR-FRET with CDCA; geometric means of at least two independent runs.
T1 construct: 5 μL of 20 nM FXR-LBD Complete Coregulator buffer G; purchased ThermoFisher PV4833
T1 sequence (Q96RI1 262-486 limits assumed): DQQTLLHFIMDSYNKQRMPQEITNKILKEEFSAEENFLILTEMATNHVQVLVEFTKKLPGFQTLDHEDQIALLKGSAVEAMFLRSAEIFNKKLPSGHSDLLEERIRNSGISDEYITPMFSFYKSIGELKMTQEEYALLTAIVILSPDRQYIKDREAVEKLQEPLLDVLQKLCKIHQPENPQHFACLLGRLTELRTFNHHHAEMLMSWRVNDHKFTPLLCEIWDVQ
Format: biochemical
In short: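 FXR-LBD (20 nM working solution) mixed with compound, CDCA (200 μM working solution) as agonist, Fluorescein-SRC2-2 and Tb-anti-GST antibody in Coregulator buffer G; 10 h at room temperature. Coactivator recruitment read by TR-FRET, triplicate wells.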

`CCOC(=O)c1oc2ccc(S(=O)(=O)N(CCc3ccccc3)c3ccccc3N3CCN(C(=O)OC(C)(C)C)CC3)cc2c1C` [Example M8-77, ethyl 3-methyl-5-(N-(2-(4-(tert-butoxycarbonyl)piperazin-1-yl)phenyl)-N-phenethylsulfamoyl)benzofuran-2-carboxylate] and `CCOC(=O)c1oc2ccc(S(=O)(=O)N(CCc3ccccc3)Cc3ccccc3N3CCN(C(=O)OC(C)(C)C)CC3)cc2c1C` [Example M8-87, ethyl 3-methyl-5-(N-(2-(4-(tert-butoxycarbonyl)piperazin-1-yl)benzyl)-N-phenethylsulfamoyl)benzofuran-2-carboxylate] fall in the same range of IC50: 50 to 100 µM for the first, 50 to 100 µM for the second.

`CCOC(=O)c1oc2ccc(S(=O)(=O)N(CCc3ccccc3)Cc3cccc([N+](=O)[O-])c3)cc2c1C` [Example M4-25, ethyl 3-methyl-5-(N-(3-nitrobenzyl)-N-phenethylsulfamoyl)benzofuran-2-carboxylate] and `CCOC(=O)c1oc2ccc(S(=O)(=O)N(CCc3ccccc3)Cc3ccc(Br)cc3)cc2c1C` [Example M4-30, ethyl 3-methyl-5-(N-(4-bromobenzyl)-N-phenethylsulfamoyl)benzofuran-2-carboxylate] fall in the same range of IC50: 50 to 100 µM for the first, 50 to 100 µM for the second.

`CCOC(=O)c1oc2ccc(S(=O)(=O)N(CCc3ccccc3)c3ccc(N4CCN(Cc5ccccc5)CC4)cc3)cc2c1C` [Example M8-70, ethyl 3-methyl-5-(N-(4-(4-benzylpiperazin-1-yl)phenyl)-N-phenethylsulfamoyl)benzofuran-2-carboxylate] and `CCOC(=O)c1oc2ccc(S(=O)(=O)N(CCc3ccccc3)Cc3ccc(N4CCN(C(=O)OC(C)(C)C)CC4)cc3)cc2c1C` [Example M8-81, ethyl 3-methyl-5-(N-(4-(4-(tert-butoxycarbonyl)piperazin-1-yl)benzyl)-N-phenethylsulfamoyl)benzofuran-2-carboxylate] fall in the same range of IC50: 50 to 100 µM for the first, 50 to 100 µM for the second.

`CCOC(=O)c1oc2ccc(S(=O)(=O)N(CCc3ccccc3)Cc3ccccc3N3CC[N+](C)(C)CC3)cc2c1C` [Example M10-99, 4-(2-((2-(ethoxycarbonyl)-3-methyl-N-benzylethylbenzofuran)-5-sulfonylamino)phenyl)-1,1-dimethylpiperazin-1-ium] and `CCOC(=O)c1oc2ccc(S(=O)(=O)N(CCc3ccccc3)c3ccccc3N3CC[N+](C)(C)CC3)cc2c1C` [Example M10-90, 4-(2-((2-(ethoxycarbonyl)-3-methyl-N-phenethylbenzofuran)-5-sulfonylamino)phenyl)-1,1-dimethylpiperazin-1-ium] fall in the same range of IC50: 50 to 100 µM for the first, 50 to 100 µM for the second.

`CCOC(=O)c1oc2ccc(S(=O)(=O)N(CCc3ccccc3)Cc3ccc(-c4ccccc4C(=O)OC(C)(C)C)cc3)cc2c1C` [Example M4-84, ethyl 3-methyl-5-(N-((2′-(tert-butoxycarbonyl)-[1,1′-biphenyl]-4-yl)methyl)-N-phenethylsulfamoyl)benzofuran-2-carboxylate] and `CCOC(=O)c1oc2ccc(S(=O)(=O)N(CCc3ccccc3)Cc3ccccc3Br)cc2c1C` [Example M4-16, ethyl 3-methyl-5-(N-(2-bromobenzyl)-N-phenethylsulfamoyl)benzofuran-2-carboxylate] fall in the same range of IC50: 50 to 100 µM for the first, 50 to 100 µM for the second.

Work on `Cc1c(C(=O)O)oc2ccc(S(=O)(=O)N(CCc3ccccc3)Cc3ccccc3N3CCN(C(=O)OC(C)(C)C)CC3)cc12` [Example F27-S87, 3-methyl-5-(N-(2-(4-(tert-butoxycarbonyl)piperazin-1-yl)benzyl)-N-phenethylsulfamoyl)benzofuran-2-carboxylic acid] yielded an IC50 of 0.1 to 10 µM.

Same assay, conditions: Table 1.2, FXR antagonistic activity; TR-FRET with CDCA; geometric means of at least two independent runs

`Cc1c(C(=O)O)oc2ccc(S(=O)(=O)N(CCc3ccccc3)c3ccccc3N3CCN(C(=O)c4ccc(Br)s4)CC3)cc12` [Example F27-S123, 5-(N-(2-(4-(5-bromothiophene-2-carbonyl)piperazin-1-yl)phenyl)-N-phenethylsulfamoyl)-3-methyl benzofuran-2-carboxylic acid] and `Cc1ccc(C(=O)N2CCN(c3ccccc3N(CCc3ccccc3)S(=O)(=O)c3ccc4oc(C(=O)O)c(C)c4c3)CC2)s1` [Example F27-S139, 5-(N-(2-(4-(5-methylthiophene-2-formyl)piperazin-1-yl)phenyl)-N-phenethylsulfamoyl)3-methylbenzofuran-2-carboxylic acid] fall in the same range of IC50: 0.1 to 10 µM for the first, 0.1 to 10 µM for the second.

`CCOC(=O)c1oc2ccc(S(=O)(=O)N(CCc3ccccc3)c3ccccc3N3CCN(C(=O)c4ccc(NC(=O)OC(C)(C)C)cc4)CC3)cc2c1C` [Example M10-113, Ethyl-(N-(2-(4-(4-((tert-butoxycarbonyl)amino)benzoyl)piperazin-1-yl)phenyl)-N-phenethylsulfamoyl)-3-methylbenzofuran-2-carboxylate] and `CCOC(=O)c1oc2ccc(S(=O)(=O)N(CCc3ccccc3)c3ccccc3N3CCN(C(=O)c4ccsc4)CC3)cc2c1C` [Example M10-119, Ethyl 3-methyl-5-(N-phenethyl-N-(2-(4-(thiophene-3-carbonyl)piperazin-1-yl)phenyl)sulfamoyl)benzofuran-2-carboxylate] fall in the same range of IC50: 50 to 100 µM for the first, 50 to 100 µM for the second.

`CCOC(=O)c1oc2ccc(S(=O)(=O)N(CCc3ccccc3)c3ccccc3N3CCN(C(=O)c4sccc4Br)CC3)cc2c1C` [Example M10-125, ethyl 5-(N-(2-(4-(3-bromothiophene-2-carbonyl)piperazin-1-yl)phenyl)-N-phenethylsulfamoyl)-3-methylbenzofuran-2-carboxylate] and `CCOC(=O)c1oc2ccc(S(=O)(=O)N(CCc3ccccc3)c3ccccc3N3CCN(C(=O)c4cc(Br)cs4)CC3)cc2c1C` [Example M10-127, Ethyl 5-(N-(2-(4-(4-bromothiophene-2-carbonyl)piperazin-1-yl)phenyl)-N-phenethylsulfamoyl)-3-methylbenzofuran-2-carboxylate] fall in the same range of IC50: 50 to 100 µM for the first, 50 to 100 µM for the second.

`Cc1c(C(=O)O)oc2ccc(S(=O)(=O)N(CCc3ccccc3)c3ccccc3N3CCN(C(=O)c4ccc(C(F)(F)F)cc4)CC3)cc12` [Example F27-S110, 3-methyl-5-(N-phenethyl-N-(2-(4-(4-(trifluoromethyl)benzoyl)piperazin-1-yl)phenyl)sulfamoyl)benzofuran-2-carboxylic acid] and `Cc1c(C(=O)O)oc2ccc(S(=O)(=O)N(CCc3ccccc3)c3ccccc3N3CCN(C(=O)c4c[nH]cn4)CC3)cc12` [Example F27-S144, 5-(N-(2-(4-(1H-imidazole-4-formyl)piperazin-1-yl)phenyl)-N-phenethylsulfamoyl)3-methylbenzofuran-2-carboxylic acid] fall in the same range of IC50: 0.1 to 10 µM for the first, 0.1 to 10 µM for the second.

`CCOC(=O)c1sc2ccc(S(=O)(=O)Nc3ccccc3N3CCN(C(=O)c4sccc4Br)CC3)cc2c1C` [Example M10-176, Ethyl 5-(N-(2-(4-(3-bromothiophene-2-carbonyl)piperazin-1-yl)phenyl)sulfamoyl)-3-toluothiophene-2-carboxylate] and `CCOC(=O)c1sc2ccc(S(=O)(=O)N(CCc3ccc(C)cc3)c3ccccc3N3CCN(C(=O)c4sccc4Br)CC3)cc2c1C` [Example M10-166, Ethyl 5-(N-(2-(4-(3-bromothiophene-2-carbonyl)piperazin-1-yl)phenyl)-N-(4-methylphenylethyl)sulfamoyl)-3-methylbenzothiophene-2-carboxylate] fall in the same range of IC50: 50 to 100 µM for the first, 50 to 100 µM for the second.

First: Cc1c(C(=O)O)oc2ccc(S(=O)(=O)N(CCc3ccccc3)c3ccccc3N3CCN(C(=O)c4sccc4Br)C[C@@H]3C)cc12 [Example F27-S152, (S)-5-(N-(2-(4-(3-bromothiophene-2-carbonyl)-2-methylpiperazin-1-yl)phenyl)-N-phenethylsulfamoyl)-3-methylbenzofuran-2-carboxylic acid]
Second: CCOC(=O)c1oc2ccc(S(=O)(=O)N(CCc3ccccc3)c3ccccc3N3CCN(C(=O)c4sccc4Br)C[C@@H]3C)cc2c1C [Example M10-152, (S)-ethyl-5-(N-(2-(4-(3-bromothiophene-2-carbonyl)-2-methylpiperazin-1-yl)phenyl)-N-phenethylsulfamoyl)-3-methylbenzofuran-2-carboxylate]
The IC50 of the first is lower: 0.1 to 10 µM for the first, 50 to 100 µM for the second. The first is the more potent here.

`CCOC(=O)c1oc2ccc(S(=O)(=O)N(CCc3ccccc3)c3ccccc3N3CCN(C(=O)c4ccccc4OC)CC3)cc2c1C` [Example M10-136, Ethyl 5-(N-(2-(4-(2-methoxybenzoyl)piperazin-1-yl)phenyl)-N-phenethylsulfamoyl)3-methylbenzo furan-2-carboxylate] and `CCOC(=O)c1oc2ccc(S(=O)(=O)N(CCc3ccccc3)c3ccccc3N3CCN(C(=O)c4ccco4)CC3)cc2c1C` [Example M10-121, Ethyl 5-(N-(2-(4-(furan-2-carbonyl)piperazin-1-yl)phenyl)-N-phenethylsulfamoyl)-3-methylbenzofuran-2-carboxylate] fall in the same range of IC50: 50 to 100 µM for the first, 50 to 100 µM for the second.

`Cc1c(C(=O)O)oc2ccc(S(=O)(=O)N(CCc3ccccc3)c3ccccc3N3CCCN(C(=O)c4sccc4Br)CC3)cc12` [Example F27-S154, 5-(N-(2-(4-(3-bromothiophene-2-formyl)-1,4-diazepin-1-yl)phenyl)-N-phenethylsulfamoyl)3-methylbenzofuran-2-carboxylic acid] and `O=C(O)c1[nH]c2ccc(S(=O)(=O)N(CCc3ccccc3)c3ccccc3N3CCN(C(=O)c4sccc4Br)CC3)cc2c1Cl` [Example F27-S161, 5-(N-(2-(4-(3-bromothiophene-2-carbonyl)piperazin-1-yl)phenyl)-N-phenethylsulfamoyl)-3-chloro-1H-indole-2-carboxylic acid] fall in the same range of IC50: 0.1 to 10 µM for the first, 0.1 to 10 µM for the second.

`CCOC(=O)c1oc2ccc(S(=O)(=O)N(CCc3ccccc3)c3ccccc3N3CCC4(CC3)CN(C(=O)c3sccc3Br)C4)cc2c1C` [Example M10-150] showed an IC50 of 50 to 100 µM.
